According to PubChem BioAssay AID2823 (Broad Institute, 2010):
Calls of active or inactive are those of the source. The rule behind the calls is not given here.

Target: RanGTP-importin-beta complex (human Ran / KPNB1)
Test: disruptors of RanGTP/KPNB1 binding – biochemical, FRET, CFP/YFP, cell-free homogeneous, confirmation (AID 2823)
Settings: CFP-Ran/YFP-importin-beta FRET ratio

In the case of `Cc1ccccc1-n1c(=O)cc(N2CCC3(CC2)OCCO3)[nH]c1=O`, the IC50 is reported as > 50 µM (inactive).
`Clc1ccc(/C=C/c2ncc3ccccn23)cc1` gave an IC50 of 12.5 µM.
With `C=CCn1c(N)c(C(=O)OC(C)CC)c2nc3ccccc3nc21` (stereo not drawn) the IC50 was 19.8 µM.
With `Oc1ccc(/C=N/Nc2ccc3ccccc3c2)c(O)c1` the IC50 was > 50 µM (inactive).
With `COc1ccc(S(=O)Cc2ccc(C(=O)NC3CC3)o2)cc1` (stereo not drawn) the IC50 was > 50 µM (inactive).
In the case of `Cc1ccccc1-n1c(=O)cc(N2CC(C)OC(C)C2)[nH]c1=O` (stereo not drawn), the IC50 is reported as > 50 µM (inactive).
`COc1ccccc1N1CCN(C(=O)/C=C/c2ccc(C)cc2)CC1` was tested, and the IC50 was > 50 µM (inactive).
`CCCc1noc(-c2cccc([N+](=O)[O-])c2)n1` was tested, and the IC50 was > 50 µM (inactive).
With `Cc1cccc(Nc2nnc(SC/C(O)=C(\C#N)c3nc4ccccc4[nH]3)s2)c1C` the IC50 was > 50 µM (inactive).
In the case of `Cc1cc(S(=O)(=O)N2CCN(c3c(C)cccc3C)CC2)ccc1F`, the IC50 is reported as > 50 µM (inactive).
In the case of `CCc1c(C)c2cc(Cl)c(O)c(CN3CCCCC3)c2oc1=O`, the IC50 is reported as 22.9 µM.
With `Cc1ccc(C2=CC(c3ccccc3)n3ncnc3N2)c(C)c1` (stereo not drawn) the IC50 was > 50 µM (inactive).
With `CCc1ccc(C(=O)CSc2ncn[nH]2)cc1` the IC50 was > 50 µM (inactive).
With `O=C(CN1CCOCC1)NNc1c2ccccc2nc2ccccc12` the IC50 was > 50 µM (inactive).
In the case of `Cc1ccc(Nc2cc(C)nn2-c2nc(C)cc(C)n2)cc1`, the IC50 is reported as > 50 µM (inactive).
`CC(=O)c1c(N2CCN(C)CC2)nc(=S)n(-c2cc(C)ccc2C)c1C` was tested, and the IC50 was > 50 µM (inactive).
In the case of `COc1ccc(-c2cc(C(=O)O)nc3ccc4ccccc4c23)cc1OC`, the IC50 is reported as > 50 µM (inactive).
Work on `O=C(c1ccccc1)c1cc2ccc(O)cc2oc1=O` yielded an IC50 of 13 µM.
`N=c1c(S(=O)(=O)c2ccc(Cl)cc2)cc2c(=O)n3ccccc3nc2n1Cc1cccnc1` was tested, and the IC50 was > 50 µM (inactive).
With `CC(=O)[C@@H]1[C@@H](C)N(Cc2ccccc2)C(=O)N[C@H]1c1cccc(C(F)(F)F)c1` the IC50 was > 50 µM (inactive).
With `O=C(N/N=C/c1ccc(-c2ccccc2Cl)o1)c1ccccc1` the IC50 was > 50 µM (inactive).
Compound `COc1cccc(C(=O)c2cc3ccc(O)cc3oc2=O)c1` has an IC50 of 26.9 µM.
`CCN(C(=O)c1c(C)cc(=O)oc1C)c1ccc2c(c1)OCO2` was tested, and the IC50 was > 50 µM (inactive).
In the case of `OCCNCc1cccc(OCc2ccccc2Cl)c1`, the IC50 is reported as > 50 µM (inactive).
`CC1(C)CNC(=O)C=C(c2ccccc2)C1` was tested, and the IC50 was > 50 µM (inactive).
`CC(C)(C)NC(=O)C(c1ccco1)N(Cc1ccc(F)cc1)C(=O)c1snc(C(N)=O)c1N` (stereo not drawn) was tested, and the IC50 was > 50 µM (inactive).
`CC(C)NC(=O)C1CC=CCC1C(=O)O` (stereo not drawn) was tested, and the IC50 was > 50 µM (inactive).
With `O=c1nc(-c2ccccc2Cl)c2cc(F)ccc2[nH]1` the IC50 was > 50 µM (inactive).
`NS(=O)(=O)c1ccc(N=Nc2c[nH]c(=O)c(O)c2)cc1` was tested, and the IC50 was > 50 µM (inactive).
For `O=C(Nc1cccc(-c2nc3ccccc3s2)c1)c1cccs1`, the IC50 was > 50 µM (inactive).
For `O=C(NCc1ccccc1C(F)(F)F)C1CC(c2ccc(C(F)(F)F)cc2)=NO1` (stereo not drawn), the IC50 was > 50 µM (inactive).
`COc1ccc(/C=C2\SC(=S)N(CC(=O)OCC(=O)Nc3ccc(C)cc3Cl)C2=O)cc1` was tested, and the IC50 was > 50 µM (inactive).
In the case of `Cc1ccccc1Cn1nnc(-c2cccc(C(=O)O)c2)n1`, the IC50 is reported as > 50 µM (inactive).
Work on `Cc1ccc2cc(C#N)c(N3CCCN(S(=O)(=O)c4ccc(F)cc4)CC3)nc2c1` yielded an IC50 of 31.6 µM.
With `CN(C)/C=C/C(=O)/C=C/c1ccc(Cl)cc1` the IC50 was > 50 µM (inactive).
With `CCN1C(=O)C2(C(C#N)=C(N)Oc3n[nH]c(C(C)C)c32)c2ccccc21` (stereo not drawn) the IC50 was > 50 µM (inactive).
`Fc1ccccc1N1CC(c2ccccc2)C(c2cccs2)=N1` (stereo not drawn) gave an IC50 of 20.8 µM.
`O=C(CCN1CCC(c2ccc(Cl)s2)=N1)c1ccc(Cl)s1` was tested, and the IC50 was > 50 µM (inactive).
In the case of `CCN(CC)CCCNC(=S)N(Cc1cccs1)Cc1cc2cc3c(cc2[nH]c1=O)OCCO3`, the IC50 is reported as > 50 µM (inactive).
Work on `CCCn1c(=N)c(C(=O)NCc2ccc3c(c2)OCO3)cc2c(=O)n3cccc(C)c3nc21` yielded an IC50 of 10.2 µM.
In the case of `CCN(CC(=O)Nc1cccc(S(=O)(=O)N2CCCCC2)c1)Cc1ccccc1`, the IC50 is reported as > 50 µM (inactive).
With `Cc1ccc2[nH]c(=O)c(C(c3nnnn3Cc3ccccc3)N3CCc4ccccc43)cc2c1` (stereo not drawn) the IC50 was > 50 µM (inactive).
`COCCN1C=C(C(=O)OC)C(c2ccc(Cl)cc2)C(C(=O)OC)=C1` gave an IC50 of 9.78 µM.
`CCn1nc(NC(=O)c2ccncc2)c2cc3ccc(C)cc3nc21` was tested, and the IC50 was 46.4 µM.
For `Cc1ccc(-c2nc3cc(N)ccc3o2)cc1`, the IC50 was > 50 µM (inactive).
For `COc1ccc(N2C(=O)N3[C@H](c4ccc(Br)cc4)[C@@H]4C(=O)N(C(C)(C)C)C(=O)[C@@H]4[C@]3(Cc3ccccc3)C2=O)cc1`, the IC50 was > 50 µM (inactive).
`Cc1sc(NC(=O)c2oc3ccccc3c2C)c(C#N)c1C` was tested, and the IC50 was > 50 µM (inactive).
`CC(C)S(=O)(=O)c1nsc2nc(=O)c(/C=C3\C=Nc4ccccc43)c(N)n12` was tested, and the IC50 was 7.97 µM.
In the case of `NC(=O)c1ccc(F)cc1`, the IC50 is reported as > 50 µM (inactive).
In the case of `CC(NCc1cccs1)C(=O)NC1CCCCC1` (stereo not drawn), the IC50 is reported as > 50 µM (inactive).
For `CO/N=C\c1cc(C(=O)c2ccc(Cl)cc2Cl)cn1C`, the IC50 was > 50 µM (inactive).
With `Cc1ccccc1N=Cc1cc2c(cc1O)OC(N)=C(C#N)C2c1ccccc1` (stereo not drawn) the IC50 was > 50 µM (inactive).
`COc1ccccc1C(=O)NC(=S)Nc1ccc(N2CCCC2)cc1` was tested, and the IC50 was > 50 µM (inactive).
Compound `COc1ccc(CCNC(=O)c2cc3c(=O)n4ccccc4nc3n(CCCN3CCOCC3)c2=N)cc1` has an IC50 of 17.9 µM.
With `COC(=O)c1cc(NC(=O)c2ccc([N+](=O)[O-])cc2)c(=O)oc1C` the IC50 was > 50 µM (inactive).
For `CCOC(=O)c1c(NC(=O)c2cccc(N3C(=O)CCC3=O)c2)sc2c1CCN(CC)C2`, the IC50 was > 50 µM (inactive).
With `O=C(COC(=O)c1ccc2ccccc2c1)NCCCc1ccccc1` the IC50 was > 50 µM (inactive).
`COc1c2ccccc2nc2ccccc12` was tested, and the IC50 was 8.46 µM.
`CCS(=O)(=O)c1ccc(S(=O)(=O)CC)s1` was tested, and the IC50 was > 50 µM (inactive).
`Cc1c(CCC(=O)NC2CC2)c(=O)oc2c(C)c(O)ccc12` gave an IC50 of 20.8 µM.
Compound `COc1ccc(CCNc2nc3ccccc3n3nnnc23)cc1OC` has an IC50 of 40.1 µM.
For `Cc1ccc(OCC(=O)N2CCCCCC2)c(C)c1`, the IC50 was > 50 µM (inactive).
`Cc1ccc(-n2c(=O)c(C#N)cc3c(=O)n4ccccc4nc32)cc1` gave an IC50 of 1.99 µM.
For `CCc1ccccc1NC(=O)/C(C#N)=C\c1ccc(Sc2ccccc2)o1`, the IC50 was > 50 µM (inactive).
`Cc1cc(C)c2c(N)c(C(=O)NN3CC(=O)N(c4ccccc4F)CC3=O)sc2n1` was tested, and the IC50 was > 50 µM (inactive).
`CCCCOc1ccc(OCCSc2nc3ccccc3n2CC(=O)O)cc1` was tested, and the IC50 was > 50 µM (inactive).
Compound `CCN1CCN(Cc2ccc(NC(=O)c3ccc(C)c(/C=C/c4cnc(Nc5cc(N6CCNCC6)nc(C)n5)cn4)c3)cc2C(F)(F)F)CC1` has an IC50 of 19.5 µM.
`O=C(Cn1c(=O)c2cccn2c2cccnc21)NCCCN1CCN(c2ccc(F)cc2)CC1` was tested, and the IC50 was > 50 µM (inactive).
In the case of `CS(=O)(=O)N(CC(=O)NCCSCc1ccco1)c1ccc(Cl)cc1`, the IC50 is reported as > 50 µM (inactive).
In the case of `c1cncc(Nc2c3ccccc3nc3ccccc23)c1`, the IC50 is reported as > 50 µM (inactive).
With `NC(=S)Cc1nc(-c2ccc(Cl)cc2)cs1` the IC50 was > 50 µM (inactive).
For `Cc1cc2oc3cc(NCCC4CCCN4C)ccc3c(=O)c2cc1C` (stereo not drawn), the IC50 was 8.12 µM.
In the case of `Cc1sc(NC(=O)c2ccccc2)c(C#N)c1-c1ccccc1`, the IC50 is reported as > 50 µM (inactive).
In the case of `CNC(=O)c1c(C)[nH]c(=S)c(C#N)c1-c1ccco1`, the IC50 is reported as > 50 µM (inactive).
With `CCOC(=O)c1c(C)oc2cc(Br)c(OCC(N)=O)cc12` the IC50 was > 50 µM (inactive).
Work on `N#Cc1cc2cc3c(cc2nc1N1CCOCC1)OCO3` yielded an IC50 of 12.2 µM.
For `O=C(O)c1ccccc1P(=O)(c1ccccc1)c1ccccc1`, the IC50 was > 50 µM (inactive).
With `CCCOC(=O)CSC1=C(C#N)C(c2ccccc2OC)C(C#N)C(=O)N1` (stereo not drawn) the IC50 was > 50 µM (inactive).
With `C=CCN1C=CC(=CC=C(C#N)C#N)C=C1` the IC50 was 29.1 µM.
`CC(=O)N1CCC(N(CCN2CCOCC2)C(=O)Nc2ccc(Cl)c(Cl)c2)CC1` was tested, and the IC50 was > 50 µM (inactive).
With `CCCN1CCC2(CC1)C(C#N)=C(N)Oc1c2sc2nc(C)cc(C)c12` the IC50 was > 50 µM (inactive).
With `C=CCn1c(C)c(C(C)=O)c(N2CCN(C(c3ccccc3)c3ccccc3)CC2)nc1=S` the IC50 was > 50 µM (inactive).
For `O=C(c1cc(COc2ccc(F)cc2Cl)on1)N1CCCC(c2ccccc2)C1` (stereo not drawn), the IC50 was > 50 µM (inactive).
In the case of `Cc1cc(O)ccc1NC1=CC(=O)CC(C)(C)C1`, the IC50 is reported as > 50 µM (inactive).
In the case of `CCOc1ccc(N=Cc2c(O)n(-c3cccc(C)n3)c(=O)c3ccccc23)cc1`, the IC50 is reported as > 26 µM (inactive).
`CC1CCCCN1Cc1c(O)ccc2c(=O)c(-c3nc4ccccc4s3)coc12` (stereo not drawn) was tested, and the IC50 was less than 0.38 µM.
For `O=C(Nc1nonc1NC(=O)c1cccs1)c1cccs1`, the IC50 was > 50 µM (inactive).
`CCOC(=O)C1CCN(c2cc(=O)n(C3CCCCC3)c(=O)[nH]2)CC1` was tested, and the IC50 was > 50 µM (inactive).
With `O=C(Cc1ccccc1)NNc1c2ccccc2nc2ccccc12` the IC50 was > 50 µM (inactive).
`CCOCCCn1c(=N)c(C(=O)NCc2ccc3c(c2)OCO3)cc2c(=O)n3cccc(C)c3nc21` was tested, and the IC50 was 14.9 µM.
`Cc1ccc2nc(/C(C#N)=C/c3ccc(O)c(O)c3)[nH]c2c1` was tested, and the IC50 was > 50 µM (inactive).
Compound `CC(C)NC(=O)/C(C#N)=C/c1ccc(N(C)C)o1` has an IC50 of 6.07 µM.
`CCc1ccc(C(=O)c2cc3ccc(O)cc3oc2=O)cc1` was tested, and the IC50 was 11.7 µM.
In the case of `CCC(=O)NCCNc1nc2cc(C)c(C)cc2cc1C#N`, the IC50 is reported as 16 µM.
In the case of `CCOC(=O)c1ccccc1NC(=O)COC(=O)C(CCSC)NC(=O)COc1ccccc1` (stereo not drawn), the IC50 is reported as > 50 µM (inactive).
In the case of `Cc1ccc(C)c(NC(=S)N(C)CCc2ccccn2)c1`, the IC50 is reported as > 50 µM (inactive).
`CCOc1ccc(-n2c(N)c(C(=O)NCc3ccco3)c3nc4ccccc4nc32)cc1` gave an IC50 of 25 µM.
In the case of `COCCNC(=O)/C(C#N)=C/c1cn(CC(=O)NCc2ccco2)c2ccccc12`, the IC50 is reported as 40.4 µM.
For `N#C/C(=C/c1ccc(N2CCCCC2)o1)C(=O)NCCc1c[nH]c2ccccc12`, the IC50 was 0.936 µM.
For `N#CC1=C(N)Oc2cc3c(cc2C1c1ccc(Cl)cc1)OCO3` (stereo not drawn), the IC50 was > 50 µM (inactive).
`COc1ccc(OC)c(N(CC(=O)O)S(=O)(=O)c2ccc(OC)c(OC)c2)c1` was tested, and the IC50 was > 50 µM (inactive).
With `CCCSc1nnc(-c2c[nH]c3ccccc23)n1CC` the IC50 was > 50 µM (inactive).
With `CCN1CCN(c2cc(=O)n(Cc3ccc(F)cc3)c(=O)[nH]2)CC1` the IC50 was > 50 µM (inactive).
